Assay results taken from patent publication US8148391B2 (Cephalon, Inc., priority 2006, dated 2012).
Where two headings read alike, the source gives them in different places. Values belong to the molecule of their own block, whether it stands above or below them.

Assays:
[1] = target: T1, baculovirus-expressed ALK (Homo sapiens, UniProt Q9UM73); assay: ALK Kinase Assay (ELISA-type, time-resolved fluorescence); assay type: biochemical
T1 construct: host or cells: baculovirus expression system
Method in brief: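 Substrate coating: phospholipase C-γ, 10 μg/mL in TBS. Kinase step: 30 ng/ml ALK, 15 min, 37° C. Detection and analysis: Eu-N1 PT66 antibody, with IC50 fitted as a sigmoidal variable-slope dose-response curve.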

[2] = target: T2, c-Met (cytoplasmic domain) (Homo sapiens, UniProt P08581); assay: c-Met Kinase Assay (same methods as for ALK, with modifications); assay type: biochemical
T2 construct: 10 ng/mL c-Met (cytoplasmic domain, Invitrogen Corporation #PV3143); purchased Invitrogen Corporation PV3143
T2 sequence (P08581 956-1390 limits assumed): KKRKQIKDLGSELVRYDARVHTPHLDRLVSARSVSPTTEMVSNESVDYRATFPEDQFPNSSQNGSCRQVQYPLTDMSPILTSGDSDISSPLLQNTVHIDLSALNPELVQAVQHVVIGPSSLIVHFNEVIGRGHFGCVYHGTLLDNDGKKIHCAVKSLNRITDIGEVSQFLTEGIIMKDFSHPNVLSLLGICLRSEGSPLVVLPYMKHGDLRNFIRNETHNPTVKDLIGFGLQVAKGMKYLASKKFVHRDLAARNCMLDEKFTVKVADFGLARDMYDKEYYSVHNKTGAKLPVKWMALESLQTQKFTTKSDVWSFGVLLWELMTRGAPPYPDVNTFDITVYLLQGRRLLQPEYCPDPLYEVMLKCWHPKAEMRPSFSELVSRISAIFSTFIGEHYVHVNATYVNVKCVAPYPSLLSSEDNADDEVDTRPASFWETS
Method in brief: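 This plate-based kinase format uses immobilized phospholipase C-γ as substrate, phosphorylated by c-Met cytoplasmic domain (10 ng/mL) at 37° C for 15 minutes.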

[3] = ALK kinase inhibition, 1 μM ATP, read-out: ALK Activity
[4] = c-Met kinase inhibition, 1 μM ATP, read-out: cMet Activity
[5] = ALK kinase inhibition, 1 μM ATP (Km level), read-out: ALK Activity
[6] = c-Met kinase inhibition, 1 μM ATP (Km level), read-out: cMet Activity
[7] = 1 μM ATP (Km level), 30 ng/ml ALK, 37° C., 15 minutes, read-out: ALK Activity (ALK kinase inhibition, IC50 class)
[8] = 1 μM ATP (Km level), 10 ng/mL c-Met, read-out: cMet Activity (c-Met kinase inhibition, IC50 class)
[9] = 1 μM ATP (Km level), read-out: ALK Activity (ALK Kinase Inhibition, IC50)
[10] = 1 μM ATP (Km level), read-out: cMet Activity (c-Met Kinase Inhibition, IC50)

T1 sequence (Q9UM73 19-1620): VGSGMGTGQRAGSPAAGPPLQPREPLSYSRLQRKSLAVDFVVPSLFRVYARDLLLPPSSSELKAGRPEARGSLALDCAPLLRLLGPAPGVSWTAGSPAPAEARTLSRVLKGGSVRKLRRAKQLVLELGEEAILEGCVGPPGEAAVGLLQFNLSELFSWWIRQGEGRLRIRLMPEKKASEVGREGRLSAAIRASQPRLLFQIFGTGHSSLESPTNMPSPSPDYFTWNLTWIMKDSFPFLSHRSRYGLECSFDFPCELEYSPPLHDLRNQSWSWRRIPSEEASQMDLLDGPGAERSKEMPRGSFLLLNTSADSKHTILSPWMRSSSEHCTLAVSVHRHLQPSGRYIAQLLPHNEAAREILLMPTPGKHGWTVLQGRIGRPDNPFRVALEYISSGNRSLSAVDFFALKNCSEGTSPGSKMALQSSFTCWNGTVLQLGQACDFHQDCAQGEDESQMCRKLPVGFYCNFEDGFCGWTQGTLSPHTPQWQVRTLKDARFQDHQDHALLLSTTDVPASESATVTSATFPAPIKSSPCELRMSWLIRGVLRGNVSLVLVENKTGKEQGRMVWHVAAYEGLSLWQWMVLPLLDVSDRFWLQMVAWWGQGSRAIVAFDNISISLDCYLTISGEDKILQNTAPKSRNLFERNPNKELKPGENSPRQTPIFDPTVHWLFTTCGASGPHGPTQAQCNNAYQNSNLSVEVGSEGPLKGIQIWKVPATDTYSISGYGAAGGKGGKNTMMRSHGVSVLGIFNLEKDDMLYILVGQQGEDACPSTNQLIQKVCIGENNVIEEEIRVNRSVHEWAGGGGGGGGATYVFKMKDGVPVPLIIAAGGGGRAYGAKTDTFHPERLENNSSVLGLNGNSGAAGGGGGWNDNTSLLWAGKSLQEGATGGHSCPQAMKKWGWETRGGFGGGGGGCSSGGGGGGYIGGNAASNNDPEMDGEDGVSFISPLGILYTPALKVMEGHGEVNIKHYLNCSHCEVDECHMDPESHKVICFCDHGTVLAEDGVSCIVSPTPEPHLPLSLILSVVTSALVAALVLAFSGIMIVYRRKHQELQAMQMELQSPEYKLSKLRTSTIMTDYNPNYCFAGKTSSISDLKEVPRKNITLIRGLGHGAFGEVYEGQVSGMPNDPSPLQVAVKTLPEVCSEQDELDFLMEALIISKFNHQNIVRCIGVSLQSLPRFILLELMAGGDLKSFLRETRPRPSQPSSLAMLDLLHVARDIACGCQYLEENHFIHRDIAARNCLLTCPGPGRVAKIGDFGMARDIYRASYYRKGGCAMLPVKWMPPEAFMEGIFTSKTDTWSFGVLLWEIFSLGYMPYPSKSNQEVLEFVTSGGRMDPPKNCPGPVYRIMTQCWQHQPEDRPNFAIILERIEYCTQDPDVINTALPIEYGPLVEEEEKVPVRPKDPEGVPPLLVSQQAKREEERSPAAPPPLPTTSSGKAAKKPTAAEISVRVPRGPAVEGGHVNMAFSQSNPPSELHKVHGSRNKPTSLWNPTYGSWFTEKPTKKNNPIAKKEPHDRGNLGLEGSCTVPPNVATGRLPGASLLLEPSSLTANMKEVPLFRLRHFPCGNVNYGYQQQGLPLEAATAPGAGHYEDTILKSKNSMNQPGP

Molecule: CCN1C(=O)CCC(C)(C)c2ccc(Nc3ncc(Cl)c(Nc4ccsc4C(=O)NC)n3)cc21 [Example 1597, 3-[5-Chloro-2-(1-ethyl-5,5-dimethyl-2-oxo-2,3,4,5-tetrahydro-1H-benzo[b]azepin-8-ylamino)-pyrimidin-4-ylamino]-thiophene-2-carboxylic acid methylamide]
IC50 [1, 3]: 1 to 10 µM
IC50 [2, 4]: 1 to 10 µM

Molecule: CNC(=O)c1ccccc1Nc1nc(Nc2ccc3c(c2)CCN(C[C@@H](O)C(F)(F)F)CC3)ncc1Cl [Example 448, 2-{5-Chloro-2-[3-((R)-3,3,3-trifluoro-2-hydroxy-propyl)-2,3,4,5-tetrahydro-1H-benzo[d]azepin-7-ylamino]-pyrimidin-4-ylamino}-N-methyl-benzamide]
IC50 [1, 5]: < 0.1 µM
IC50 [2, 6]: < 0.1 µM

Molecule: NC(=O)C1C2C=CC(C2)C1Nc1nc(Nc2ccc3c(c2)CCN(CC(O)C(F)(F)F)CC3)ncc1Cl (mixture of isomers) [Example 334, (2-exo, 3-exo)-3-{5-Chloro-2-[3-((R)-3,3,3-trifluoro-2-hydroxy-propyl)-2,3,4,5-tetrahydro-1H-benzo[d]azepin-7-ylamino]-pyrimidin-4-ylamino}-bicyclo[2.2.1]hept-5-ene-2-carboxylic acid amide]
IC50 [1, 5]: < 0.1 µM
IC50 [2, 6]: 0.1 to 1 µM

Molecule: CCN1C(=O)CCC(C)(C)c2ccc(Nc3ncc(Cl)c(Nc4c(F)cccc4S(C)(=O)=O)n3)cc21 [Example 1259, 8-[5-Chloro-4-(2-fluoro-6-methanesulfonyl-phenylamino)-pyrimidin-2-ylamino]-1-ethyl-5,5-dimethyl-1,3,4,5-tetrahydro-1-benzazepin-2-one]
IC50 [1, 7]: 0.1 to 1 µM
IC50 [2, 8]: 1 to 10 µM

Molecule: CNC(=O)c1cccc(F)c1Nc1nc(Nc2ccc3c(c2)-c2nccn2CCC3)ncc1Cl [Example 1844, 2-[5-Chloro-2-(5,6-dihydro-4H-1,3a-diaza-benzo[e]azulen-9-ylamino)-pyrimidin-4-ylamino]-3-fluoro-N-methyl-benzamide]
IC50 [1, 3]: < 0.1 µM
IC50 [2, 4]: < 0.1 µM

Molecule: COc1ccc2c(c1Nc1ncc(Cl)c(Nc3ccccc3S(=O)(=O)N(C)C)n1)CCC(N1CCOCC1)CC2 (stereo not shown) [Example 1072, 2-[5-Chloro-2-(2-methoxy-7-morpholin-4-yl-6,7,8,9-tetrahydro-5H-benzocyclohepten-1-ylamino)-pyrimidin-4-ylamino]-N,N-dimethyl-benzenesulfonamide]
IC50 [1, 7]: 0.1 to 1 µM
IC50 [2, 8]: > 10 µM

Molecule: CCNC(=O)c1cccc(F)c1Nc1nc(Nc2ccc3c(c2)C(C)(C)CCC(=O)N3C)ncc1Cl [Example 1366, 2-[5-Chloro-2-(1,5,5-trimethyl-2-oxo-2,3,4,5-tetrahydro-1H-benzo[b]azepin-7-ylamino)-pyrimidin-4-ylamino]-N-ethyl-3-fluoro-benzamide]
IC50 [1, 7]: < 0.1 µM
IC50 [2, 8]: < 0.1 µM

Molecule: CC1(C)CCC(=O)Nc2cc(Nc3ncc(Cl)c(N[C@H]4[C@@H](C(N)=O)[C@@H]5C=C[C@H]4C5)n3)ccc21 [Example 1236, (1S,2S,3R,4R)-3-[5-Chloro-2-(5,5-dimethyl-2-oxo-2,3,4,5-tetrahydro-1H-1-benzazepin-8-ylamino)-pyrimidin-4-ylamino]-bicyclo[2.2.1]hept-5-ene-2-carboxylic acid amide]
IC50 [1, 7]: < 0.1 µM
IC50 [2, 8]: < 0.1 µM

Molecule: CC(C)N1C(=O)CCC(C)(C)c2ccc(Nc3ncc(Cl)c(N[C@H]4[C@@H](C(N)=O)[C@@H]5C=C[C@H]4C5)n3)cc21 [Example 1590, (1S,2S,3R,4R)-3-[5-Chloro-2-(1-isopropyl-5,5-dimethyl-2-oxo-2,3,4,5-tetrahydro-1H-benzo[b]azepin-8-ylamino)-pyrimidin-4-ylamino]-bicyclo[2.2.1]hept-5-ene-2-carboxylic acid amide]
IC50 [1, 3]: < 0.1 µM
IC50 [2, 4]: 1 to 10 µM

Molecule: COc1cc2c(cc1Nc1ncc(Cl)c(Nc3ccc(N4CCN(C(C)C)CC4)c4c3C(=O)N(C)C4)n1)CCN(CCO)CC2 [Example 953, 7-{5-Chloro-2-[3-(2-hydroxy-ethyl)-8-methoxy-2,3,4,5-tetrahydro-1H-3-benzazepin-7-ylamino]-pyrimidin-4-ylamino}-4-(4-isopropyl-piperazin-1-yl)-2-methyl-2,3-dihydro-isoindol-1-one]
IC50 [1, 9]: < 0.1 µM
IC50 [2, 10]: > 10 µM

Molecule: CCN1CCc2ccc(Nc3ncc(Cl)c(Nc4ccccc4S(=O)(=O)NC)n3)cc2CC1 [Example 32, 2-[5-Chloro-2-(3-ethyl-2,3,4,5-tetrahydro-1H-benzo[d]azepin-7-ylamino)-pyrimidin-4-ylamino]-N-methyl-benzenesulfonamide]
IC50 [1, 5]: < 0.1 µM
IC50 [2, 6]: < 0.1 µM

Molecule: COc1ccc(Nc2nc(Nc3ccc4c(c3)C(C)(C)CCC(=O)N4C)ncc2Cl)c(-n2cccn2)c1 [Example 619, 7-[5-Chloro-4-(4-methoxy-2-pyrazol-1-yl-phenylamino)-pyrimidin-2-ylamino]-1,5,5-trimethyl-1,3,4,5-tetrahydro-benzo[b]azepin-2-one]
IC50 [1, 9]: < 0.1 µM
IC50 [2, 10]: 0.1 to 1 µM

Molecule: COc1cc2c(cc1Nc1ncc(Cl)c(Nc3ccc(N4CCN(C)CC4)cc3C)n1)CCN(CC(=O)N(C)C)CC2 [Example 802, 2-(7-{5-Chloro-4-[2-methyl-4-(4-methyl-piperazin-1-yl)-phenylamino]-pyrimidin-2-ylamino}-8-methoxy-1,2,4,5-tetrahydro-benzo[d]azepin-3-yl)-N,N-dimethyl-acetamide]
IC50 [1, 9]: < 0.1 µM
IC50 [2, 10]: > 10 µM

Molecule: CCN1C2CCC1c1c(ccc(Nc3ncc(Cl)c(Nc4ccccc4C(=O)NC)n3)c1Cl)C2 (stereo not shown) [Example 73, 2-[5-Chloro-2-(3-chloro-12-ethyl-12-aza-tricyclo[7.2.1.0*2,7*]dodeca-2(7),3,5-trien-4-ylamino)-pyrimidin-4-ylamino]-N-methyl-benzamide]
IC50 [1, 5]: < 0.1 µM
IC50 [2, 6]: 0.1 to 1 µM

Molecule: 5-Chloro-N*2*-[7-(2,2-difluoro-ethylamino)-1-methoxy-6,7,8,9-tetrahydro-5H-benzocyclohepten-2-yl]-N*4*-methyl-N*4*-[2-(propane-2-sulfonyl)-phenyl]-pyrimidine-2,4-diamine [Example 678]
IC50 [1, 9]: < 0.1 µM
IC50 [2, 10]: > 10 µM

Molecule: CCN1CC(=O)N(CC)c2cc(Nc3ncc(Cl)c(Nc4c(F)cccc4C(=O)NC)n3)ccc2C1 [Example 1870, 2-[5-Chloro-2-(1,4-diethyl-2-oxo-2,3,4,5-tetrahydro-1H-benzo[e][1,4]diazepin-8-ylamino)-pyrimidin-4-ylamino]-3-fluoro-N-methyl-benzamide]
IC50 [1, 3]: 0.1 to 1 µM
IC50 [2, 4]: < 0.1 µM

Results, then the molecule that gave them:

IC50 [1, 5]: < 0.1 µM
IC50 [2, 6]: 1 to 10 µM
Molecule: CNC(=O)c1ccccc1Nc1nc(Nc2ccc3c(c2OC)CCCC(=O)N3C)ncc1Cl [Example 116, 2-[5-Chloro-2-(6-methoxy-1-methyl-2-oxo-2,3,4,5-tetrahydro-1H-benzo[b]azepin-7-ylamino)-pyrimidin-4-ylamino]-N-methyl-benzamide]

IC50 [1, 3]: 1 to 10 µM
IC50 [2, 4]: 1 to 10 µM
Molecule: CC(=O)N(C)Cc1ccccc1Nc1nc(Nc2ccc3c(c2)CCOC(=O)N3C)ncc1Cl [Example 1792, N-{2-[5-Chloro-2-(5-methyl-6-oxo-5,6,8,9-tetrahydro-7-oxa-5-aza-benzocyclohepten-2-ylamino)-pyrimidin-4-ylamino]-benzyl}-N-methyl-acetamide]

IC50 [1, 3]: < 0.1 µM
IC50 [2, 4]: 0.1 to 1 µM
Molecule: CN1C(=O)CCC(C)(C)c2cc(Nc3ncc(Cl)c(N[C@@H]4CCCC[C@H]4N(C)S(C)(=O)=O)n3)ccc21 [Example 1680, N-{(1R,2R)-2-[5-Chloro-2-(1,5,5-trimethyl-2-oxo-2,3,4,5-tetrahydro-1H-benzo[b]azepin-7-ylamino)-pyrimidin-4-ylamino]-cyclohexyl}-N-methyl-methanesulfonamide]

IC50 [1, 7]: < 0.1 µM
IC50 [2, 8]: > 10 µM
Molecule: COc1cc2c(cc1Nc1ncc(Cl)c(N[C@@H]3CCCC[C@H]3NS(C)(=O)=O)n1)CCN(CCS(C)(=O)=O)CC2 [Example 1122, N-((1R,2R)-2-{5-Chloro-2-[3-(2-methanesulfonyl-ethyl)-8-methoxy-2,3,4,5-tetrahydro-1H-benzo[d]azepin-7-ylamino]-pyrimidin-4-ylamino}-cyclohexyl)-methanesulfonamide]

IC50 [1, 7]: < 0.1 µM
IC50 [2, 8]: > 10 µM
Molecule: CCN1C(=O)[C@@H](N)CCc2c1ccc(Nc1ncc(Cl)c(N[C@H]3[C@@H](C(N)=O)[C@@H]4C=C[C@H]3C4)n1)c2OC (single isomer, unassigned) [Example 1332]

IC50 [1, 5]: < 0.1 µM
IC50 [2, 6]: > 10 µM
Molecule: COc1c(Nc2ncc(Cl)c(N[C@@H]3CCCC[C@H]3NS(C)(=O)=O)n2)ccc2c1CCCC(=O)N2C [Example 118, N-{(1R,2R)-2-[5-Chloro-2-(6-methoxy-1-methyl-2-oxo-2,3,4,5-tetrahydro-1H-benzo[b]azepin-7-ylamino)-pyrimidin-4-ylamino]-cyclohexyl}-methanesulfonamide]

IC50 [1, 7]: 1 to 10 µM
IC50 [2, 8]: > 10 µM
Molecule: COCCN1CCc2cc(Nc3ncc(Cl)c(N[C@@H]4[C@H](C(N)=O)[C@H]5C=C[C@@H]4C5)n3)c(OC)cc2CC1 [Example 1322, (1R,2R,3S,4S)-3-{5-Chloro-2-[8-methoxy-3-(2-methoxy-ethyl)-2,3,4,5-tetrahydro-1H-benzo[d]azepin-7-ylamino]-pyrimidin-4-ylamino}-bicyclo[2.2.1]hept-5-ene-2-carboxylic acid amide]
